Reference: patent publication US20200129450A1, “COMPOSITION COMPRISING OSMUNDACETONE OR PHARMACEUTICALLY ACCEPTABLE SALT THEREOF FOR PREVENTING OR TREATING BONE DISEASE” (KORPHARM CO., LTD., priority 2016, published 2020)
Values joined by “and” are separate entries in the source; they are usually repeats but may differ in a detail not shown here. Equal values may be shown once. “Also recorded” adds a separate entry of the source.

Assays:
RUNX2 in MC3T3-E1 cells = experiment: Western blot, RUNX2 expression; type: cell-based, mouse; conditions: 50 μM
Protocol: In order to analyze the expression of osteoblast differentiation markers during a differentiation procedure, 3×10^5 MC3T3-E1 cells were dispensed in a 100 mm culture plate together with 10 mL of complete α-MEM containing ascorbic acid (50 μg/mL) and 10 mM R-glycerophosphate per well. Here, 50 μM osmundacetone was added or not added, and the cells were incubated at 37 […] in a 5% CO2 incubator for 21 days while the medium was exchanged every 3-4 days.
The negative control cells were cultured without differentiation factors, and the osteoblasts and a culture thereof were dispensed, and then collected on day 7, 14, or 21.
The cells were lysed using RIPA buffer, and then the expression of runt-related transcription factor 2 (RUNX2) was analyzed. Also for analysis of OCN secretion, the culture was collected, and normalized by cellular DNA.
Proteins were analyzed using SDS-PAGE on 12.5% […] gels, and transferred on polyvinylidene difluoride (PVDF) membrane through electrophoresis.
The membrane was blocked using non-fat milk, and examined using anti-RUNX2 (D1H7) rabbit monoclonal antibody (#8486, Cell Signaling Technology, MA, USA) or anti-OCN (FL-95) antibody (# sc-30045, Santa Cruz Biotechnology, TX, USA). Anti-actin antibody (# M177-3, MEDICAL & BIOLOGICAL LABORATORIES CO., LTD., Nagoya, Aichi, Japan) was used as an internal reference.
Protein bands on the blot were visualized using an enhanced chemiluminescent detection kit (# EBP-1073, PicoEPD Western Reagent, ELPIS-BIOTECH, Daejeon, Korea).

[1] = tested on: osteoclasts differentiated from mouse bone marrow cells; experiment: TRAP assay, osteoclast proliferation and differentiation inhibitory activity; type: cell-based; conditions: for IC50: tested at 1, 4, 7 and 10 μM, TRAP-positive multinucleated cells
Protocol: Bone marrow cells were collected from the femur and shin bones of 5-8 week old male C57BL/6 mice. Muscles were removed from the bones, and stored in cold phosphate buffered saline (PBS; # CAP08-050, GenDEPOT, Katy, Tex., USA).
Both ends of each bone were cut, and the bone marrow was flushed with a flushing medium (serum-free α-MEM, 2 mM ethylenediaminetetraacetic acid) kept cool, using a 25 G needle.
Bone marrow cells were collected by centrifugation at 3,000 rpm for 3 min using Labogene 1248R (Labogene, Lynge, Denmark), and then resuspended in a wash medium. Thereafter, 8 mL of the collected bone marrow cells were overlaid on 6 mL of a lymphocyte isolation medium (LSM; #50494, MP Biomedicals, Santa Ana, Calif., USA), followed by centrifugation at 1,600 rpm for 20 minutes, thereby isolating mononuclear cells.
The mononuclear cell bands were collected from the media interface, and incubated using complete α-MEM (containing 10% fatal bovine serum (FBS; Capricorn Scientific, Ebsdorfergrund, Germany) and 1% (v/v) antibiotic (including 100 U/mL penicillin G and […] streptomycin)) in the conditions of 37° C. and 5% CO2 while the medium was exchanged every three days.
In order to promote the differentiation of osteoclasts, 1×10^5 cells were incubated in 0.5 mL of the medium per well in a 48-well plate, in the presence of osteoclast differentiation factors, M-CSF (60 ng/mL) and RANKL (150 ng/mL), purchased from PeproTec (Seoul, Korea). As known, macrophages/monocytes derived from one bone marrow differentiated into mature multinucleated osteoclasts after 6 days (Gurt et al., 2015).
The tibia and femur of 6-8 week old male C57BL/6 mice were aseptically resected, and bone marrow cells were aseptically collected using a syringe (21 G, Korea Green Cross). The bone marrow cells were floated in 500 μL of α-MEM medium (Gibco BRL Co.) containing sodium bicarbonate (2.0 g/L), streptomycin (100 mg/L), and penicillin ([…]), dispensed in a 48-well plate, and assayed in triplicate. Mononuclear cells as precursor cells of osteoclasts were treated with RANKL and M-CSF as differentiation promoting factors, and thus differentiated into osteoclasts within 5-7 days.
2-1) Sample preparation: The hot-water extract, EA extract, or fraction of Osmunda japonica were prepared by the same methods as in section 1 of <Example 1>. The EA-2 extract was dissolved in a minimum amount of DMSO, and then diluted with water to 70% of the original volume of the hot-water extract assuming that the yield of EA-2 extraction was approximately 70%. 2-2) Sample administration: The sample was continuously administered to a medium at 1:20 (v/v; 25 μL of the sample per 500 μL of the medium) from day 1 of incubation of bone marrow cells, while the medium was exchanged every 2-3 days. 2-3) Measurement of osteoclast differentiation Osteoclasts were defined by TRAP-positive multinucleated cells stained with TRAP. As for TRAP stain solution, 5 mg of naphthol AS-MS phosphate (Sigma N-4875) as a base and 25 mg of Fast Red Violet LB salt as a color developing reagent were dissolved in about 0.5 mL of N,N-dimethylformamide, and then mixed with 0.1N NaHCO3 buffer solution (50 mL) containing 50 mM tartaric acid. The reaction reagent was stored in a refrigerator before use.
After bone marrow cells were incubated in a medium containing differentiation promoting factors for 7 days, the medium was removed, and the cells were washed with PBS, and then immobilized with PBS containing 10% formalin for 2-5 minutes. Thereafter, the cells were immobilized with a 1:1 mixture solution of ethanol and acetone, followed by drying. The immobilized cells were treated with the TRAP stain solution for 15 minutes, and washed with PBS, and then the degree of cell staining was observed by a microscope.
In the microscope field of view, cells having two or more nuclei in the TRAP-positive cells were determined to be osteoclasts, and the number of cells was measured. […]

ALP activity in MC3T3-E1 = experiment: Measurement of ALP activity in MC3T3-E1; type: cell-based, mouse; conditions: MC3T3-E1, day 14, mean±s.d.
Protocol: ALP activity was assessed using Quantichrom ALP Assay Kit (Bioassay Systems, Hayward, Calif., USA) according to manufacturer's instructions.
Briefly, 3×10^3 MC3T3-E1 cells were dispensed in a 96-well plate together with […] of complete α-MEM containing ascorbic acid (50 μg/mL) and 10 mM β-glycerophosphate per well. Here, osmundacetone (10 μM and 50 μM) was added or not added, and the medium was exchanged every 3-4 days.
On day 14 of the incubation, the colorimetric change due to ALP activity in the cell fraction was measured using a spectrophotometer plate reader (Molecular Devices, Sunnyvale, Calif., USA) at 405 nm (Kim et al., 2016). The % activation of ALP activity was shown by comparing ALP activity of cells treated with an experimental compound and ALP activity of the non-treated control cells.

## CC(=O)/C=C/c1ccc(O)c(O)c1 [Osmundacetone, (3E)-4-(3,4-dihydroxyphenyl)-3-buten-2-one]
RUNX2 in MC3T3-E1 cells; day 7
  RUNX2 expression level, increase compared with non-treated positive control group: 1.1 times
RUNX2 in MC3T3-E1 cells; day 14
  RUNX2 expression level, increase compared with non-treated positive control group: 1.1 times
RUNX2 in MC3T3-E1 cells; day 21
  RUNX2 expression level, increase compared with non-treated positive control group: 2.1 times
[1]; 1 μM
  formation of giant osteoclasts, number compared with the positive control group: smaller compared with the positive control group
[1]; 10 μM osmundacetone (printed 10M)
  formation of giant osteoclasts / differentiation of bone marrow mononuclear cells into osteoclasts: significantly inhibited; also recorded: almost completely inhibited
[1]; Mus musculus, Osteoclast
  IC50: ≤ 8 µM
[1]; Mus musculus, Osteoclast, 7 μM, read-out: inhibition of differentiation of bone marrow mononuclear cells into osteoclasts
  inhibition at 7 µM: 3 to 40%
[1]; Mus musculus, Osteoclast, 10 μM, read-out: inhibition of differentiation of bone marrow mononuclear cells into osteoclasts
  inhibition at 10 µM: ≥ 95%
[1]; osmundacetone 10M as printed
  proliferation of osteoclast precursor cells: significantly inhibited
[1]
  IC50: 8 µM
ALP activity in MC3T3-E1; 10 μM
  % Activation of ALP activity: 115 ± 9.4%
ALP activity in MC3T3-E1; 50 μM
  % Activation of ALP activity: 279 ± 61 %
ALP activity in MC3T3-E1; 50 μM, listed as osmundacetone
  % Activation of ALP activity: 279±61% and 280%
